Measurements: patent publication US5128249A, “Stable sulpho-adenosyl-L-methionine (SAMe) salts, particularly suitable for oral pharmaceutical use” (Bioresearch S.p.a., priority 1984, dated 1992)

Legend:
[1] = Solubility in water and organic solvents; conditions: water
[2] = Absorption of SAMe salts in rats: areas under the SAMe plasmatic concentration curves (AUC); format: in vivo, Sprague Dawley male rats; conditions: 100 mg of active principle per kg, mean of 5 observations, extrapolated to infinity, 100 mg/kg; for AUC, intestinal administration: introduced into proximal jejunum; for AUC, oral administration: oral administration by gastric probe
Method: The absorption was studied on 110 Sprague Dawley male rats of weight 210 g which had fasted since the previous evening.
The products are administered in solution or in a 2% gum arabic aqueous suspension.
For each product, 5 rats are operated under ether anesthesia to allow the substance under examination to be introduced into the proximal jejunum. The wall incision is closed by ligature, and the animals sutured.
The product is administered to a further 5 animals orally by means of a gastric probe.
A blood sample is withdrawn from the caudal vein at the commencement and at 10, 20, 40, 60, 90, 120, 180 and 240 minutes after administration, and the SAMe concentration is determined on the sample by the modified method of Baldessarini and Kopin (J. Neurochem. 13: 769, 1966).
The plasmatic concentration values less the initial values are plotted against time and the areas under the time curves to infinity calculated by the trapezium and curve extrapolation method.
Areas under the SAMe plasmatic concentration curves (AUC) for rats treated intestinally and orally with the listed products at a dosage corresponding to 100 mg of active principle per kg of body weight. The values represent the mean of 5 observations.

Row | solubility [1] [µg/mL] | Compound | AUC, intestinal administration [2] [N moles · ml^-1 × min] | AUC, oral administration [2] [N moles · ml^-1 × min]
1 | 10000 | CCCCCCCCCCCCCCS(=O)(=O)[O-].[Na+] |  | 
2 |  | C[S+](CC[C@H](N)C(=O)[O-])C[C@H]1O[C@@H](n2cnc3c(N)ncnc32)[C@H](O)[C@@H]1O (some centres unmarked) [DBS, SAMe tri dodecylbenzenesulphonate] | 17000 | 7800
3 |  | C[S+](CC[C@H](N)C(=O)[O-])C[C@H]1O[C@@H](n2cnc3c(N)ncnc32)[C@H](O)[C@@H]1O (some centres unmarked) [DSS, SAMe tri dioctylsulphosuccinate] | 18500 | 8000
4 |  | C[S+](CC[C@H](N)C(=O)[O-])C[C@H]1O[C@@H](n2cnc3c(N)ncnc32)[C@H](O)[C@@H]1O (some centres unmarked) [Example S1, SAMe tri methanesulphonate, reference compound] | 4400 | 870
5 |  | C[S+](CC[C@H](N)C(=O)[O-])C[C@H]1O[C@@H](n2cnc3c(N)ncnc32)[C@H](O)[C@@H]1O (some centres unmarked) [Example S5, SAMe tri pentanesulphonate, reference compound] | 4900 | 950
6 |  | C[S+](CC[C@H](N)C(=O)[O-])C[C@H]1O[C@@H](n2cnc3c(N)ncnc32)[C@H](O)[C@@H]1O (some centres unmarked) [Example S6, SAMe tri hexanesulphonate, reference compound] | 6900 | 980
7 |  | C[S+](CC[C@H](N)C(=O)[O-])C[C@H]1O[C@@H](n2cnc3c(N)ncnc32)[C@H](O)[C@@H]1O (some centres unmarked) [Example S12, SAMe tri dodecanesulphonate] | 25500 | 9700
8 |  | C[S+](CC[C@H](N)C(=O)[O-])C[C@H]1O[C@@H](n2cnc3c(N)ncnc32)[C@H](O)[C@@H]1O (some centres unmarked) [Example S012, SAMe tri laurylsulphate] | 20800 | 8900
9 |  | C[S+](CC[C@H](N)C(=O)[O-])C[C@H]1O[C@@H](n2cnc3c(N)ncnc32)[C@H](O)[C@@H]1O (some centres unmarked) [Example S14, SAMe tri tetradecanesulphonate] | 26800 | 9800
10 |  | C[S+](CC[C@H](N)C(=O)[O-])C[C@H]1O[C@@H](n2cnc3c(N)ncnc32)[C@H](O)[C@@H]1O (some centres unmarked) [Example S16, SAMe tri hexadecanesulphonate] | 25300 | 9600
11 |  | C[S+](CC[C@H](N)C(=O)[O-])C[C@H]1O[C@@H](n2cnc3c(N)ncnc32)[C@H](O)[C@@H]1O (some centres unmarked) [Example S18, SAMe tri octadecanesulphonate] | 24100 | 9400
12 |  | C[S+](CC[C@H](N)C(=O)[O-])C[C@H]1O[C@@H](n2cnc3c(N)ncnc32)[C@H](O)[C@@H]1O (some centres unmarked) [SAMe SO4 -PTS, SAMe disulphatep-toluenesulphonate, reference compound] | 6700 | 990
